The IC50 is the concentration needed to halve the response being measured. Usually Ki stands for the equilibrium dissociation constant of an inhibitor or competing ligand from its target.

We go through 18 compounds from ChEMBL document CHEMBL1909046, “DrugMatrix in vitro pharmacology data”.

The target in data set [1] is Cytochrome P450 2D6 (Homo sapiens, UniProt P10635). Conditions: bti-tn-5b1-4. Also: in other assays of this panel Not Active means under 50% inhibition at 10 µM.
Data set [2] deals with Mitogen-activated protein kinase 1 (Homo sapiens, UniProt P28482). Description: DRUGMATRIX: Protein Serine/Threonine Kinase, ERK2 enzyme inhibition (substrate: Myelin Basic Protein). Details: species or system Escherichia coli. Conditions: Not Active = under 50% inhibition at 10 µM.
Mitogen-activated protein kinase 1, sequence (P28482 whole entry): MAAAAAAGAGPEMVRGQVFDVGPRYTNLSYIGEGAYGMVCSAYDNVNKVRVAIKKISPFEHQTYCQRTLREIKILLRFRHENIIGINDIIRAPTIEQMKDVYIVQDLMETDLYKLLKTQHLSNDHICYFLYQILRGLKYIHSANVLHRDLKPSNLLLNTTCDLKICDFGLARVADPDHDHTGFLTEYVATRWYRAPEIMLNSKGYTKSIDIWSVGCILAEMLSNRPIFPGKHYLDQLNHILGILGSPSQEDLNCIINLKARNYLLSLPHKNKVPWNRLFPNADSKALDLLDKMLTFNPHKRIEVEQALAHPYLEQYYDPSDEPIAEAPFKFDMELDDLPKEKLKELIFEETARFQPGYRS
Data set [3] addresses Melanocortin receptor 4 (Homo sapiens, UniProt P32245). Type of data set: cell membranes, Membrane. The note with it: hek293.
The target of data set [4] is cGMP-specific 3',5'-cyclic phosphodiesterase (Homo sapiens, UniProt O76074). Description: DRUGMATRIX: Phosphodiesterase PDE5 enzyme inhibition (substrate: [3H]cGMP + cGMP). The class given is tissue-based. Conditions: platelet; Not Active = under 50% inhibition at 10 µM.
For data set [5], the target named is D(1A) dopamine receptor (Homo sapiens, UniProt P21728). Description: DRUGMATRIX: Dopamine D1 radioligand binding (ligand: [3H] SCH-23390). Type of data set: cell membranes, CHO, Membrane. Conditions: Not Active = under 50% inhibition at 10 µM.
D(1A) dopamine receptor, sequence (P21728 whole entry): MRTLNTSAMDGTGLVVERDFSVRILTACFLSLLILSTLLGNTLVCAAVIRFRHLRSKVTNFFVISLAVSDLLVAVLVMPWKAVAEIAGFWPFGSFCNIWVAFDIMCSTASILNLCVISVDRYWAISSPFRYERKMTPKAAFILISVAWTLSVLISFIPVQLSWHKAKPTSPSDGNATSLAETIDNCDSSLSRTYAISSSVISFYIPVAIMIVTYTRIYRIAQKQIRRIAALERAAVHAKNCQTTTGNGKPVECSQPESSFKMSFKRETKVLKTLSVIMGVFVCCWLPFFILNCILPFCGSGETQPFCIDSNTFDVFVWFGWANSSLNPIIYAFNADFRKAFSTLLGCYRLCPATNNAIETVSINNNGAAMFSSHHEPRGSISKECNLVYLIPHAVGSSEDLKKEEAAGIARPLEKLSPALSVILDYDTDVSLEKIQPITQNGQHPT
The target in data set [6] is T1, Cathepsin G (Homo sapiens, UniProt P08311).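 Also: inhibition of Cathepsin G enzyme activity, tested on an AMC-conjugated peptide substrate; in other assays of this panel Not Active means under 50% inhibition at 10 µM.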
T1 sequence (P08311 whole entry): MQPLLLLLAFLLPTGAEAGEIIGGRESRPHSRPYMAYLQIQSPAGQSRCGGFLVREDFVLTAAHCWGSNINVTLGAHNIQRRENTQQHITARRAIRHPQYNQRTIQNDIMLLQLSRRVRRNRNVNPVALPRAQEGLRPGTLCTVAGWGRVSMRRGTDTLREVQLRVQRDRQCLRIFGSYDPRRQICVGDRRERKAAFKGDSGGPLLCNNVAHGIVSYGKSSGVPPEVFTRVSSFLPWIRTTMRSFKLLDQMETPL
Type of data set: tissue-based. Conditions: neutrophil.

Data set [7] deals with T2, Muscarinic acetylcholine receptor M2 (Homo sapiens, UniProt P08172).
T2 sequence (P08172 whole entry): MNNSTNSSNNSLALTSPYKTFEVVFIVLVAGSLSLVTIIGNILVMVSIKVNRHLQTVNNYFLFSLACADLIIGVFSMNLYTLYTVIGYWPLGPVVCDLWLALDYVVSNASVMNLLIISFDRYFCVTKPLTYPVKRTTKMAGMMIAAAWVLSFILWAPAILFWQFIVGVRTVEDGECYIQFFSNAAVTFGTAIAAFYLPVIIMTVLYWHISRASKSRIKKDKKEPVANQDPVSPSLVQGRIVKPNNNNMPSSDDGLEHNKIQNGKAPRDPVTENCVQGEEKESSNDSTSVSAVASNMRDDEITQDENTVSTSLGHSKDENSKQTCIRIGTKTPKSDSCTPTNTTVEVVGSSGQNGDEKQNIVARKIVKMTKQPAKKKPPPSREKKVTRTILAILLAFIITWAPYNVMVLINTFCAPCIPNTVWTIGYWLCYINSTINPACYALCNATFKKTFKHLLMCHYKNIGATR
Type of data set: cell membranes, CHO-K1, Membrane.

Cytochrome P450 2D6, sequence (P10635 whole entry): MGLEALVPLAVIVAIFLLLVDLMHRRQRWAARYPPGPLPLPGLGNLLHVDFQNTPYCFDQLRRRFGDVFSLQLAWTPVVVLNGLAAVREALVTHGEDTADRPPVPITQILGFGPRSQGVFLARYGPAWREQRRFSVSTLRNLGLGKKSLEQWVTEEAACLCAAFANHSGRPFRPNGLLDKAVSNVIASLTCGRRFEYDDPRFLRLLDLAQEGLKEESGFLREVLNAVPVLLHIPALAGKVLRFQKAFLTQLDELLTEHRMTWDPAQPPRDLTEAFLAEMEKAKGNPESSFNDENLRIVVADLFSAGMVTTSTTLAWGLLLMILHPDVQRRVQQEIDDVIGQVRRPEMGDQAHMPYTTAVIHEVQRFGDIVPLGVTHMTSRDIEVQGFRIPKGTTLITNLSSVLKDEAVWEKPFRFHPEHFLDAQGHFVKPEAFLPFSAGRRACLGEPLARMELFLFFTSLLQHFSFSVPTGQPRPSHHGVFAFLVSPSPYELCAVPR
Melanocortin receptor 4, sequence (P32245 whole entry): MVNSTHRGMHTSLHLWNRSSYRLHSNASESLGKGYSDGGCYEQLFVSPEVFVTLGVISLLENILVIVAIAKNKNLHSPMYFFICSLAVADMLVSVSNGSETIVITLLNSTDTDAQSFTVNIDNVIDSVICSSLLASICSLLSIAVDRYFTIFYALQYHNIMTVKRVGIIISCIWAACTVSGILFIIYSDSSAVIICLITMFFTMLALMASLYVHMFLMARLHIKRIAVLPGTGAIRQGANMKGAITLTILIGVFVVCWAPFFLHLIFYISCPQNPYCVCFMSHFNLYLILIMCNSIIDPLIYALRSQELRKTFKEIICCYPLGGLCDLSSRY

Turning to `Nn1nnc2ccccc21`, the IC50 entry in data set [1], in data set [2], in data set [3], in data set [4], in data set [5] (cho) and in data set [6] was “Not Active” in each case. Also, the IC50 entry in data set [7] (cho-k1) is recorded as “Not Active”. Further, the Ki entry in data set [1] is “Not Active”.

In the case of `CC[C@]1(O)CC[C@H]2[C@@H]3CCC4=CCCC[C@@H]4[C@H]3CC[C@@]21C`, the IC50 entry in data set [1], in data set [2], in data set [3], in data set [4], in data set [5] (cho) and in data set [6] was “Not Active” in each case. For the same compound, the IC50 in data set [7] (read-out: IC50) turned out to be 0.292 µM. For the same compound, the Ki entry in data set [1] was “Not Active”; in data set [7] (read-out: Ki), 0.104 µM.

`CCOC(=O)[C@H](CCc1ccccc1)N[C@@H](C)C(=O)N1Cc2ccccc2C[C@H]1C(=O)O`: the IC50 entry in data set [1], in data set [2], in data set [3], in data set [4], in data set [5] (cho) and in data set [6] was “Not Active” in each case. In addition, in data set [7] (cho-k1), the half-maximal inhibitory concentration (IC50) entry is “Not Active”. Further, in data set [1], the Ki entry is given as “Not Active”.

With `O=C(c1ccccc1Cl)N1CCC(Cc2ccccc2)CC1`, the IC50 result in data set [1], in data set [2], in data set [3], in data set [4], in data set [5] (cho) and in data set [6] was “Not Active” throughout. Also, in data set [7] (cho-k1), the half-inhibitory concentration (IC50) result is reported as “Not Active”. Further, in data set [1], the Ki entry is given as “Not Active”.

`CCOC(=O)[C@H](CCc1ccccc1)N[C@@H](C)C(=O)N1CCC[C@H]1C(=O)O`: the IC50 entry in data set [1], in data set [2], in data set [3], in data set [4], in data set [5] (cho) and in data set [6] was “Not Active” in each case. For the same compound, the half-maximal inhibitory concentration (IC50) entry in data set [7] (cho-k1) was “Not Active”. For the same compound, the inhibition constant (Ki) result in data set [1] was “Not Active”.

Regarding `Clc1cc2c(cc1Cl)Oc1cc(Cl)c(Cl)cc1O2` [2,3,7,8-TETRACHLORODIBENZO-P-DIOXIN], the IC50 entry in data set [1], in data set [2], in data set [3], in data set [4], in data set [5] (cho) and in data set [6] was “Not Active” in each case. Further, the half-inhibitory concentration (IC50) result in data set [7] (cho-k1) is recorded as “Not Active”. The Ki result in data set [1] is on record as “Not Active”.

With `C=C1/C(=C\C=C2/CCC[C@]3(C)[C@@H]([C@H](C)CCCC(C)C)CC[C@@H]23)C[C@@H](O)C[C@@H]1O` [ALFACALCIDOL], the half-maximal inhibitory concentration (IC50) entry in data set [1], in data set [2], in data set [3], in data set [4], in data set [5] (cho) and in data set [6] was “Not Active” in each case. Further, the half-maximal inhibitory concentration (IC50) entry in data set [7] (cho-k1) is listed as “Not Active”. Moreover, in data set [1], the Ki result was “Not Active”.

Turning to `CCCCCC[C@H]1C(=O)O[C@H](C)[C@H](NC(=O)c2cccc(NC=O)c2O)C(=O)O[C@@H](C)[C@@H]1OC(=O)CC(C)C` [ANTIMYCIN A], the half-maximal inhibitory concentration (IC50) result was “Not Active” in data set [1]; 2.12 µM in data set [2] (read-out: IC50); “Not Active” in data set [3]; “Not Active” in data set [4]; “Not Active” in data set [5] (cho); “Not Active” in data set [6]. The half-inhibitory concentration (IC50) entry in data set [7] (cho-k1) is given as “Not Active”. In data set [1], the inhibition constant (Ki) result is “Not Active”.

Take `CO[C@H]1[C@@H](O)[C@H](N)[C@@H](O[C@H]2O[C@H]([C@H](C)N)CC[C@H]2N)[C@H](O)[C@@H]1N(C)C(=O)CN` [ASTROMICIN]: the 50% inhibitory concentration (IC50) entry in data set [1], in data set [2], in data set [3], in data set [4], in data set [5] (cho) and in data set [6] was “Not Active” throughout. For the same compound, in data set [7] (cho-k1), the half-inhibitory concentration (IC50) result is “Not Active”. Further, in data set [1], the inhibition constant Ki result is reported as “Not Active”.

As for `[N-]=[N+]=CC(=O)OC[C@H](N)C(=O)O` [AZASERINE], the half-inhibitory concentration (IC50) entry in data set [1], in data set [2], in data set [3], in data set [4], in data set [5] (cho) and in data set [6] was “Not Active” throughout. In data set [7] (cho-k1), the IC50 result is “Not Active”. Moreover, in data set [1], the inhibition constant Ki result is recorded as “Not Active”.

For `CC[C@H]1OC(=O)[C@H](C)[C@@H](O[C@H]2C[C@@](C)(OC)[C@@H](O)[C@H](C)O2)[C@H](C)[C@@H](O[C@@H]2O[C@H](C)C[C@H](N(C)C)[C@H]2O)[C@](C)(O)C[C@@H](C)CN(C)[C@H](C)[C@@H](O)[C@]1(C)O` [AZITHROMYCIN], the IC50 entry in data set [1], in data set [2], in data set [3], in data set [4], in data set [5] (cho) and in data set [6] was “Not Active” in each case. Also, in data set [7] (cho-k1), the IC50 result is “Not Active”. In addition, in data set [1], the inhibition constant Ki result is given as “Not Active”.

`CCc1oc2ccccc2c1C(=O)c1cc(Br)c(O)c(Br)c1` [BENZBROMARONE]: the IC50 result was “Not Active” in data set [1]; 1.95 µM in data set [2] (read-out: IC50); “Not Active” in data set [3]; “Not Active” in data set [4]; “Not Active” in data set [5] (cho); “Not Active” in data set [6]. The half-inhibitory concentration (IC50) result in data set [7] (cho-k1) is “Not Active”. For the same compound, the inhibition constant (Ki) entry in data set [1] is recorded as “Not Active”.

With `O=c1cc(-c2ccccc2)oc2ccc3ccccc3c12` [BETA-NAPHTHOFLAVONE], the IC50 entry in data set [1], in data set [2], in data set [3], in data set [4], in data set [5] (cho) and in data set [6] was “Not Active” throughout. Besides, the IC50 result in data set [7] (cho-k1) is reported as “Not Active”. The inhibitory constant (Ki) result in data set [1] was “Not Active”.

For `CC(C)C[C@H]1C(=O)N2CCC[C@H]2[C@]2(O)O[C@](NC(=O)[C@@H]3C=C4c5cccc6[nH]c(Br)c(c56)C[C@H]4N(C)C3)(C(C)C)C(=O)N12` [BROMOCRIPTINE], the half-inhibitory concentration (IC50) entry is “Not Active” in data set [1]; “Not Active” in data set [2]; “Not Active” in data set [3]; “Not Active” in data set [4]; 2.89 µM in data set [5] (read-out: IC50); “Not Active” in data set [6]. Also, the 50% inhibitory concentration (IC50) result in data set [7] (cho-k1) is listed as “Not Active”. Further, the Ki entry was “Not Active” in data set [1] and 1.44 µM in data set [5] (read-out: Ki).

As for `CS(=O)(=O)OCCCCOS(C)(=O)=O` [BUSULFAN], the IC50 entry in data set [1], in data set [2], in data set [3], in data set [4], in data set [5] (cho) and in data set [6] was “Not Active” throughout. In addition, in data set [7] (cho-k1), the IC50 result is reported as “Not Active”. In addition, the Ki result in data set [1] is listed as “Not Active”.

As for `O=C(/C=C/c1ccc(O)c(O)c1)OCCc1ccccc1` [CAFFEIC ACID PHENETHYL ESTER], the concentration for half-maximal inhibition (IC50) result is “Not Active” in data set [1]; 0.686 µM in data set [2] (read-out: IC50); “Not Active” in data set [3]; “Not Active” in data set [4]; “Not Active” in data set [5] (cho); “Not Active” in data set [6]. Also, the IC50 entry in data set [7] (cho-k1) is listed as “Not Active”. Further, the Ki result in data set [1] is reported as “Not Active”.

Regarding `COc1cc(CNC(=O)CCCC/C=C/C(C)C)ccc1O` [CAPSAICIN], the IC50 result in data set [1], in data set [2], in data set [3], in data set [4], in data set [5] (cho) and in data set [6] was “Not Active” in each case. Also, the half-maximal inhibitory concentration (IC50) entry in data set [7] (cho-k1) was “Not Active”. Moreover, the inhibitory constant (Ki) entry in data set [1] is “Not Active”.

`OCCN1CCN(CCCN2c3ccccc3Sc3ccc(Cl)cc32)CC1` [PERPHENAZINE]: the half-inhibitory concentration (IC50) result in data set [2], in data set [3], in data set [4], in data set [5] (cho), in data set [6] and in data set [7] (cho-k1) was “Not Active” throughout.
